Experiments:
[1] = target: T1, human CCK2i4svR splice variant (Homo sapiens, UniProt P32239); experiment: Competition binding against [125I][I-Tyr12,Leu15]gastrin-17 in HEK293-CCK2i4svR cell membranes; settings: vs [125I][I-Tyr12,Leu15]gastrin-17, HEK293-CCK2i4svR cell membranes, 1 h 22 °C; mean ± SD
T1 construct: expressed in transfected cells; membrane homogenates
T1 sequence (P32239 1-516 isoform P32239-2): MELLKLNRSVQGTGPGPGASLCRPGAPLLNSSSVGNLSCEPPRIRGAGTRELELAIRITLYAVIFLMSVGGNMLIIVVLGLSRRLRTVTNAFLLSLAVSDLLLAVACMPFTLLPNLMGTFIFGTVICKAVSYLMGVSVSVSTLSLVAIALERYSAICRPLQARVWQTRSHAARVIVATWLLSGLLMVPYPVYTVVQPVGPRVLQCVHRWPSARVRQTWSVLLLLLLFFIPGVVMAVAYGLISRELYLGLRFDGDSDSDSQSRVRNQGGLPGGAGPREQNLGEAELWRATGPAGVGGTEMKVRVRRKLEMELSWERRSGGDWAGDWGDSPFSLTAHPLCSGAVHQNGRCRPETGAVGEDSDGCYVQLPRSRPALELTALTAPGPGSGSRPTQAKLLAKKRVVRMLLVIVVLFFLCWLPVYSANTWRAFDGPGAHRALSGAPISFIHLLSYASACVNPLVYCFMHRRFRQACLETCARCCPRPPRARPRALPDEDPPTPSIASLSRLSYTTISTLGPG
Method: Competition binding assays for the metal-free GAS1/2/3 and the corresponding metal-tagged [^natGa]Ga/[^natIn]In/[^natLu]Lu-GAS1/3 and [^natGa]Ga/[^natIn]In-GAS2 analogs were conducted against the [^125I][I-Tyr^12,Leu^15]gastrin-17 radioligand in membrane homogenates harvested from HEK293-CCK2i4svR cells, as previously described. Briefly, each of the above analogs, or unmodified Z360 serving as control, was incubated in triplicates of increasing concentrations (10^−13–10^−6 M) with [^125I][I-Tyr^12,Leu^15]gastrin-17 (50 pM, ≈40,000 cpm) and membrane homogenate in binding buffer (300 µL, pH 7.4, 50 mM HEPES, 1% BSA, 5.5 mM MgCl2, 35 µM bacitracin) for 1 h at 22 °C. Incubation was interrupted by rapid filtration through glass fiber filters (Whatman GF/B, presoaked in binding buffer for at least 1 h) on a Brandel Cell Harvester (Adi Hassel Ingenieur Büro, Munich, Germany) and subsequent rinsing with ice-cold washing buffer (10 mM HEPES pH 7.4, 150 mM NaCl). The radioactivity content of individual filters was measured in a gamma counter (automated multi-sample well-type instrument with a NaI(Tl) 3′ crystal, Canberra Packard Cobra^TM Quantum U5003/1, Auto-Gamma® counting system). The 50% inhibitory concentration (IC50) was determined by nonlinear regression analysis according to a one-site model using PRISM 6 (Graph Pad Software, San Diego, CA, USA). Values are expressed as mean ± standard deviation (SD) of three independent experiments performed in triplicate.

HEK293-CCK2i4svR cells = experiment: Radioligand uptake and internalization in HEK293-CCK2i4svR cells; assay type: cell-based, human; settings: 1 h 37 °C, specific, of total added activity
Method: A day before the experiment, HEK293-CCK2i4svR cells were seeded in six-well plates. The next day, cells were rinsed with ice-cold internalization medium (IM: DMEM Glutamax-I, supplemented by 1% (v/v) FBS) and then the fresh medium was added (1.2 mL) at 37 °C. A further portion of IM (150 µL) was added in the upper well-row, and DG2 solution in IM (150 µL) was added in the lower row (to a final concentration of 1 μM; non-specific series). Each of the test radioligands, [^67Ga]Ga/[^111In]In/[^177Lu]Lu-GAS1/3 and [^67Ga]Ga/[^111In]In-GAS2, was finally added (250 fmol total conjugates in 150 μL 0.5% BSA-PBS) in all the wells and the plates were incubated at for 1 h at 37 °C in an Incubator-Orbital Shaker unit (MPM Instr. SrI, Bernareggio, MI, Italy); [^111In]In-GAS1/2/3 were incubated for 15 min, 30 min, 1 h and 2 h. At the predetermined time points, the plates were placed on ice, the medium was collected, and the plates were rinsed with 0.5% BSA-PBS (1 mL). Cells were subsequently treated with an acid-wash solution (2 × 600 µL; 50 mM glycine buffer pH 2.8, 0.1 M NaCl) and the fractions collected (membrane-bound). After briefly washing with 0.5% BSA-PBS (1 mL), the cells were lysed with 1 N NaOH (2 × 600 µL), and the fractions were collected (internalized). The radioactivity content of collected fractions was counted in the gamma counter, and the percentage of internalized and membrane-bound fractions per time point were calculated with Microsoft Excel. Specific internalized and membrane-bound counts were determined by subtracting the respective non-specific (in the presence of 1 μM DG2) from the respective total counts. Results represent specific internalized/membrane bound ± SD of total added radioactivity per well from three experiments performed in triplicate.

[2] = test system: SCID mice bearing twin HEK293-CCK2i4svR and wtHEK293 tumors; experiment: Biodistribution in SCID mice bearing twin HEK293-CCK2i4svR and wtHEK293 xenografts; assay type: in vivo
Method: Inocula containing a suspension of freshly harvested HEK293-CCK2i4svR/wtHEK293 cells (150 μL, 1.8 × 10^7/1.4 × 10^7 cells, respectively, in normal saline) were subcutaneously (sc) injected in the right and left flanks of male SCID mice (24.5 ± 2.3 g body weight, six weeks of age on arrival day, NCSR “Demokritos” Animal House Facility). Well-palpable tumors (0.42 ± 0.37/0.25 ± […], respectively) were grown at the inoculation site 3–4 weeks later, and biodistribution was conducted. On the day of biodistribution, animals were divided into groups of four and received the radioligand through the tail vein as a bolus (100 μL, containing each of: i. 78–91 kBq [^67Ga]GAS1/2/3 corresponding to 7–17 pmol GAS1/2/3; ii. 74–92 kBq [^111In]GAS1/2/3 corresponding to 20–25 pmol GAS1/2/3; iii. 730 kBq [^177Lu]Lu-GAS1/3 corresponding to 40 pmol GAS1/3, in-vehicle: saline/EtOH 9/1 v/v). Animals were euthanized at predetermined time intervals depending upon the radionuclide applied (for [^67Ga]Ga-GAS1/2/3: 1, 4 and 24 h pi; for [^111In]In-GAS1/2/3: 4 and 24 h pi–two extra groups of mice receiving gelofusine together with [^111In]In-GAS1/2 at 4 and 24 h pi were included; and for [^177Lu]Lu-GAS1/3: 4, 24, 48, 72 and 96 h pi). Mice were dissected, and blood samples, organs of interest and tumors were rapidly collected, weighted and counted in the gamma counter. Biodistribution data was calculated as the percentage of the administered dose per gram tissue (%IA/g) with the aid of suitable standards of the administered dose and the Microsoft Excel program. Results are presented as mean % IA/g values ± SD, n = 4 per time point, as determined by the PRISM^TM 6.0 GraphPad software (San Diego, CA, USA).

Structure (SMILES): CC(C)(C)C(=O)CN1C(=O)[C@H](NC(=O)Nc2cccc(C(=O)NCCOCCOCCOCCNC(=O)[C@H](CCC(=O)O)NC(=O)CN3CCN(CC(=O)[O-])CCN(CC(=O)[O-])CCN(CC(=O)[O-])CC3)c2)CN(C2CCCCC2)c2ccccc21.[In+3] [[^natIn]In-GAS1]
- IC50 [1]: 5 ± 1.1 nM

Structure (SMILES): CC(C)(C)C(=O)CN1C(=O)[C@H](NC(=O)Nc2cccc(C(=O)NCCOCCOCCOCCNC(=O)[C@H](CCC(=O)O)NC(=O)CCC(C(=O)O)N3CCN(CC(=O)[O-])CCN(CC(=O)[O-])CCN(CC(=O)[O-])CC3)c2)CN(C2CCCCC2)c2ccccc21.[Ga+3] (stereo partly drawn) [[^natGa]Ga-GAS3]
- IC50 [1]: 4.8 ± 0.6 nM

Structure (SMILES): CC(C)(C)C(=O)CN1C(=O)[C@H](NC(=O)Nc2cccc(C(=O)NCCOCCOCCOCCNC(=O)[C@H](CCC(=O)O)NC(=O)CCC(C(=O)O)N3CCN(CC(=O)[O-])CCN(CC(=O)[O-])CCN(CC(=O)[O-])CC3)c2)CN(C2CCCCC2)c2ccccc21.[In+3] (stereo partly drawn) [[^natIn]In-GAS3]
- IC50 [1]: 1.9 ± 0.2 nM

Structure (SMILES): CC(C)(C)C(=O)CN1C(=O)[C@H](NC(=O)Nc2cccc(C(=O)NCCOCCOCCOCCNC(=O)[C@H](CCC(=O)O)NC(=O)CCC(C(=O)O)N3CCN(CC(=O)[O-])CCN(CC(=O)[O-])CCN(CC(=O)[O-])CC3)c2)CN(C2CCCCC2)c2ccccc21.[Lu+3] (stereo partly drawn) [[^natLu]Lu-GAS3]
- IC50 [1]: 4.3 ± 0.9 nM

Structure (SMILES): CC(C)(C)C(=O)CN1C(=O)[C@H](NC(=O)Nc2cccc(C(=O)NCCOCCOCCOCCNC(=O)[C@H](CCC(=O)O)NC(=O)CCC(C(=O)[O-])N3CCN(CC(=O)[O-])CCN(CC(=O)[O-])CC3)c2)CN(C2CCCCC2)c2ccccc21.[Ga+3] (stereo partly drawn) [[^natGa]Ga-GAS2]
- IC50 [1]: 8.8 ± 1.6 nM

Structure (SMILES): CC(C)(C)C(=O)CN1C(=O)[C@H](NC(=O)Nc2cccc(C(=O)NCCOCCOCCOCCNC(=O)[C@H](CCC(=O)O)NC(=O)CCC(C(=O)O)N3CCN(CC(=O)[O-])CCN(CC(=O)[O-])CCN(CC(=O)[O-])CC3)c2)CN(C2CCCCC2)c2ccccc21.[67Ga+3] (stereo in doubt) [[^67Ga]Ga-GAS3]
- Cell uptake (internalized + membrane-bound) (HEK293-CCK2i4svR cells): 4.95 ± 0.51%
- Biodistribution, Blood ([2]; 1 h pi): 8.61 ± 1.17 %IA/g
- Biodistribution, CCK2i4svR(+) Tumor ([2]; 1 h pi): 21.75 ± 4.90 %IA/g
- Biodistribution, CCK2i4svR(-) Tumor ([2]; 1 h pi): 2.52 ± 0.28 %IA/g
- Biodistribution, Femur ([2]; 1 h pi): 1.60 ± 0.31 %IA/g
- Biodistribution, Heart ([2]; 1 h pi): 2.23 ± 0.38 %IA/g
- Biodistribution, Intestines ([2]; 1 h pi): 1.53 ± 0.19 %IA/g
- Biodistribution, Kidneys ([2]; 1 h pi): 9.09 ± 1.51 %IA/g
- Biodistribution, Liver ([2]; 1 h pi): 5.62 ± 0.40 %IA/g
- Biodistribution, Lungs ([2]; 1 h pi): 4.32 ± 0.58 %IA/g
- Biodistribution, Muscle ([2]; 1 h pi): 0.82 ± 0.14 %IA/g
- Biodistribution, Pancreas ([2]; 1 h pi): 2.51 ± 0.22 %IA/g
- Biodistribution, Spleen ([2]; 1 h pi): 1.96 ± 0.13 %IA/g
- Biodistribution, Stomach ([2]; 1 h pi): 1.51 ± 0.13 %IA/g
- Biodistribution, Blood ([2]; 4 h pi): 2.23 ± 0.39 %IA/g
- Biodistribution, CCK2i4svR(+) Tumor ([2]; 4 h pi): 20.39 ± 3.96 %IA/g
- Biodistribution, CCK2i4svR(-) Tumor ([2]; 4 h pi): 1.15 ± 0.18 %IA/g
- Biodistribution, Femur ([2]; 4 h pi): 0.78 ± 0.10 %IA/g
- Biodistribution, Heart ([2]; 4 h pi): 0.76 ± 0.07 %IA/g
- Biodistribution, Intestines ([2]; 4 h pi): 1.59 ± 0.19 %IA/g
- Biodistribution, Kidneys ([2]; 4 h pi): 7.86 ± 0.48 %IA/g
- Biodistribution, Liver ([2]; 4 h pi): 4.97 ± 0.74 %IA/g
- Biodistribution, Muscle ([2]; 4 h pi): 0.25 ± 0.05 %IA/g
- Biodistribution, Pancreas ([2]; 4 h pi): 0.77 ± 0.11 %IA/g
- Biodistribution, Spleen ([2]; 4 h pi): 1.60 ± 0.39 %IA/g
- Biodistribution, Stomach ([2]; 4 h pi): 0.61 ± 0.12 %IA/g
- Biodistribution, Blood ([2]; 24 h pi): 0.14 ± 0.02 %IA/g
- Biodistribution, CCK2i4svR(+) Tumor ([2]; 24 h pi): 5.37 ± 1.00 %IA/g
- Biodistribution, CCK2i4svR(-) Tumor ([2]; 24 h pi): 0.61 ± 0.08 %IA/g
- Biodistribution, Femur ([2]; 24 h pi): 0.52 ± 0.07 %IA/g
- Biodistribution, Heart ([2]; 24 h pi): 0.17 ± 0.02 %IA/g
- Biodistribution, Intestines ([2]; 24 h pi): 0.39 ± 0.06 %IA/g
- Biodistribution, Kidneys ([2]; 24 h pi): 1.98 ± 0.45 %IA/g
- Biodistribution, Liver ([2]; 24 h pi): 2.48 ± 0.34 %IA/g
- Biodistribution, Lungs ([2]; 24 h pi): 2.43 ± 1.04 %IA/g
- Biodistribution, Muscle ([2]; 24 h pi): 0.06± 0.00 %IA/g
- Biodistribution, Pancreas ([2]; 24 h pi): 0.17 ± 0.03 %IA/g
- Biodistribution, Spleen ([2]; 24 h pi): 1.67 ± 0.37 %IA/g
- Biodistribution, Stomach ([2]; 24 h pi): 0.19 ± 0.03 %IA/g
- Background clearance / excretion route ([2]; mouse, in vivo): cleared mainly via the kidneys

Structure (SMILES): CC(C)(C)C(=O)CN1C(=O)[C@H](NC(=O)Nc2cccc(C(=O)NCCOCCOCCOCCNC(=O)[C@H](CCC(=O)O)NC(=O)CCC(C(=O)[O-])N3CCN(CC(=O)[O-])CCN(CC(=O)[O-])CC3)c2)CN(C2CCCCC2)c2ccccc21.[In+3] (stereo partly drawn) [[^natIn]In-GAS2]
- IC50 [1]: 53.2 ± 2.7 nM

Structure (SMILES): CC(C)(C)C(=O)CN1C(=O)[C@H](NC(=O)Nc2cccc(C(=O)NCCOCCOCCOCCNC(=O)[C@H](CCC(=O)O)NC(=O)CN3CCN(CC(=O)[O-])CCN(CC(=O)[O-])CCN(CC(=O)[O-])CC3)c2)CN(C2CCCCC2)c2ccccc21.[Ga+3] [[^natGa]Ga-GAS1]
- IC50 [1]: 13.8 ± 2.7 nM

Structure (SMILES): CC(C)(C)C(=O)CN1C(=O)[C@H](NC(=O)Nc2cccc(C(=O)NCCOCCOCCOCCNC(=O)[C@H](CCC(=O)O)NC(=O)CN3CCN(CC(=O)[O-])CCN(CC(=O)[O-])CCN(CC(=O)[O-])CC3)c2)CN(C2CCCCC2)c2ccccc21.[Lu+3] [[^natLu]Lu-GAS1]
- IC50 [1]: 12.4 ± 0.2 nM
